Measurements as given in EP4603105A1, “PHARMACEUTICAL COMPOSITION CONTAINING CYCLIC COMPOUND HAVING SELECTIVE KRAS INHIBITORY EFFECT AGAINST HRAS AND NRAS” (CHUGAI SEIYAKU KABUSHIKI KAISHA, priority 2022, dated 2024).
*1 amine or outer side, *2 acyl side, *3 side chain or, on linkers, in order; H or OH if unused. Where a SMILES comes first, the peptide text is derived from it. Bridges are numbered along the chain shown (N, C = ends). [ ]: non-standard residue; d: D form. The star is where a group is joined. hPhe(3,5-F2-4-CF3) = N[C@@H](CCc1cc(F)c(C(F)(F)F)c(F)c1)C(=O)O; hPhe(3-Cl-4-CF3) = N[C@@H](CCc1ccc(C(F)(F)F)c(Cl)c1)C(=O)O; NPrPhe(4-CF3) = CCCN[C@@H](Cc1ccc(C(F)(F)F)cc1)C(=O)O; NEtPhe(4-Me) = CCN[C@@H](Cc1ccc(C)cc1)C(=O)O; NMeAbu(4,4,4-F3) = CN[C@@H](CC(F)(F)F)C(=O)O; X13 = CCCN([C@@H](COC1CCC1)C(=O)[*:2])[*:1]; NMeGly(cPent) = CN[C@H](C(=O)O)C1CCCC1; X7 = C[C@@](N[*:1])(C(=O)[*:2])C1CC1; NMeD = CN[C@@H](CC(=O)O)C(=O)O; NMeL = CN[C@@H](CC(C)C)C(=O)O; Morpholide = C1CN(*)CCO1; NMeA = CN[C@@H](C)C(=O)O; Ac5c = NC1(C(=O)O)CCCC1; Aze = O=C(O)[C@@H]1CCN1; Ac4c = NC1(C(=O)O)CCC1; NEtG = CCNCC(=O)O; Sar = CNCC(=O)O

Assays:
[1] = biological target: GDP-bound NRAS wild-type protein (Homo sapiens, UniProt P01111); assay: Binding to NRAS by surface plasmon resonance (SPR), KD and KD ratio to KRAS
In short: (§1)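 SPR, 30°C: Avi-biotin RAS·GDP captured via Biotin CAPture (~100–300 RU); running buffer HBS pH 7.4, 1 mM DTT, 10 mM MgCl2, 0.01% Tween 20, 10 µM GDP, 4% DMSO. Single-cycle kinetics, 100 µL/min, 75 s injections; 1:1 model → KD.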

[2] = system: human lung cancer strain NCI-H441; type: cell-based
In short: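 Proliferation was scored by […] measured after the reagent was added to cultures kept at 37°C in 5% carbon dioxide.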

HRAS wild-type protein = HRAS wild-type protein (Homo sapiens, UniProt P01112); assay: Binding to HRAS by surface plasmon resonance (SPR), KD and KD ratio to KRAS
In short: as §1

[3] = ratio of KD for GDP-bound NRAS wild-type protein to KD for KRAS
[4] = ratio of KD for HRAS wild-type protein to KD for KRAS
[5] = ratio of the KD value with respect to GDP-bound NRAS wild-type protein to the KD value with respect to KRAS
[6] = ratio of the KD value with respect to HRAS wild-type protein to the KD value with respect to KRAS

GDP-bound NRAS wild-type protein, sequence (P01111 whole entry): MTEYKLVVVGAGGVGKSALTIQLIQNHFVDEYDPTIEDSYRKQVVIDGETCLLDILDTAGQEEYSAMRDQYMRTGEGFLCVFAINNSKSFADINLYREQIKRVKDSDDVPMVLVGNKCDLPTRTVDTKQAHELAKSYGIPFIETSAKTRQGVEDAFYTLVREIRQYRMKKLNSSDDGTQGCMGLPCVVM
HRAS wild-type protein, sequence (P01112 whole entry): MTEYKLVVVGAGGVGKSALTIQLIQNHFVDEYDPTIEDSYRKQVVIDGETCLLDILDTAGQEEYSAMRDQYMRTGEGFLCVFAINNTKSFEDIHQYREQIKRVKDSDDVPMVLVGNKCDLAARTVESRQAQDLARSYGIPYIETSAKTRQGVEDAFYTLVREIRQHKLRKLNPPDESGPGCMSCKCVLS

SMILES | NRAS /KRAS [1, 3] | IC50 [2] [nM] | HRAS /KRAS (HRAS wild-type protein; [4]) | NRAS /KRAS [1, 5] | HRAS /KRAS (HRAS wild-type protein; [6]) | NRAS /KRAS ([1]; ratio of KD value for GDP-bound NRAS wild-type protein to KD value for KRAS (SPR)) | HRAS /KRAS (HRAS wild-type protein; ratio of KD value for HRAS wild-type protein to KD value for KRAS (SPR))
CCCN1C(=O)CN(C)C(=O)CN(C)C(=O)[C@H]([C@@H](C)CC)NC(=O)[C@H](CC(C)C)N(C)C(=O)C[C@@H](C(=O)N2CCOCC2)N(C)C(=O)[C@H](CC(F)(F)F)N(C)C(=O)C2(CCCC2)NC(=O)[C@@H]2CCCN2C(=O)[C@H](CCc2cc(F)c(C(F)(F)F)c(F)c2)NC(=O)CN(C)C(=O)[C@@H]1Cc1ccc(C(F)(F)F)cc1 [PP0767] ([NMeL]I[Sar][Sar][NPrPhe(4-CF3)][Sar][hPhe(3,5-F2-4-CF3)]P[Ac5c][NMeAbu(4,4,4-F3)][NMeD]-Morpholide; lactam N-11) | B (a compound having 3 or more and less than 10 is denoted as B) | 158 | C (A compound having a KD ratio of 0.1 or more and less than 3 is denoted as C) | – | – | – | –
CCO[C@@H]1C[C@H]2C(=O)NC3(CC(C)(C)C3)C(=O)N(C)[C@@H](C(CC)CC)C(=O)N(C)[C@H](C(=O)N3CCCC3)CC(=O)N(C)[C@@H](COC)C(=O)N[C@@H]([C@@H](C)CC)C(=O)N(C)CC(=O)N(C)[C@H]3C/C=C\CCN(C3=O)[C@@H](Cc3ccc(C(F)(F)F)cc3)C(=O)N(C)CC(=O)N[C@@H](CCc3ccc(C(F)(F)F)c(OC)c3)C(=O)N2C1 [PP2159] | – | 19.5 | – | AA (a compound having 20 or more is denoted as AA) | A (a compound having 10 or more and less than 20 is denoted as A) | – | –
C=CCN1CC(=O)N(C)[C@H]2C/C=C\CCN(C2=O)[C@@H](Cc2ccc(C(F)(F)F)cc2)C(=O)N(C)CC(=O)N[C@@H](CCc2cc(F)c(C(F)(F)F)c(F)c2)C(=O)N2C[C@H](OCC)C[C@H]2C(=O)NC2(CC(C)(C)C2)C(=O)N(C)[C@@H](C2CCCC2)C(=O)N(C)[C@H](C(=O)N(C)C)CC(=O)N(C)[C@@H](CCC)C(=O)N[C@@H]([C@@H](C)CC)C1=O [PP2102] | – | 7 | – | A (a compound having 10 or more and less than 20 is denoted as A) | A (a compound having 10 or more and less than 20 is denoted as A) | – | –
CCCC[C@H]1C(=O)N[C@@H]([C@@H](C)CC)C(=O)N(C)CC(=O)N(C)[C@H]2C/C=C\CCN(C2=O)[C@@H](Cc2ccc(C(F)(F)F)cc2)C(=O)N(C)CC(=O)N[C@@H](CCc2ccc(C(F)(F)F)c(OC)c2)C(=O)N2C[C@H](OCC)C[C@H]2C(=O)NC2(CCC2)C(=O)N(C)[C@@H](C2CCCC2)C(=O)N(C)[C@H](C(=O)N(C)CC)CC(=O)N1C [PP2840] | A (a compound having 10 or more and less than 20 is denoted as A) | 8.3 | A (a compound having 10 or more and less than 20 is denoted as A) | – | – | – | –
CCCN1C(=O)[C@@H]2CCN2C(=O)[C@H](C)N(C)C(=O)[C@H]([C@@H](C)CC)NC(=O)[C@H](CC(C)C)N(C)C(=O)C[C@@H](C(=O)N2CCOCC2)N(C)C(=O)[C@H](C2CCCC2)N(C)C(=O)C2(CCC2)NC(=O)[C@@H]2CCCN2C(=O)[C@H](CCc2ccc(C(F)(F)F)c(Cl)c2)NC(=O)CN(C)C(=O)[C@@H]1COC1CCC1 [PP1818] ([NMeL]I[NMeA][Aze][X13][Sar][hPhe(3-Cl-4-CF3)]P[Ac4c][NMeGly(cPent)][NMeD]-Morpholide; lactam N-11) | – | 74.8 | – | – | – | C (A compound having a KD ratio of 0.1 or more and less than 3 is denoted as C) | B (a compound having 3 or more and less than 10 is denoted as B)
CCCN1C(=O)[C@@H]2CCN2C(=O)CN(C)C(=O)[C@H]([C@@H](C)CC)NC(=O)[C@H](CC(C)C)N(C)C(=O)C[C@@H](C(=O)N2CCOCC2)N(C)C(=O)[C@H](C2CCCC2)N(C)C(=O)[C@](C)(C2CC2)NC(=O)[C@@H]2CCCN2C(=O)[C@H](CCc2cc(F)c(C(F)(F)F)c(F)c2)NC(=O)CN(C)C(=O)[C@@H]1Cc1ccc(C(F)(F)F)cc1 [PP0791] ([NMeL]I[Sar][Aze][NPrPhe(4-CF3)][Sar][hPhe(3,5-F2-4-CF3)]P[X7][NMeGly(cPent)][NMeD]-Morpholide; lactam N-11) | C (A compound having a KD ratio of 0.1 or more and less than 3 is denoted as C) | 86 | B (a compound having 3 or more and less than 10 is denoted as B) | – | – | – | –
CC(C)C[C@H]1C(=O)N[C@@H](C2CCC2)C(=O)N(C)CC(=O)N(C)[C@H]2CCCCN(C2=O)[C@@H](Cc2ccc(C(F)(F)F)cc2)C(=O)N(C)CC(=O)N[C@@H](CCc2cc(F)c(C(F)(F)F)c(F)c2)C(=O)N2CCC[C@H]2C(=O)NC2(CCCC2)C(=O)N(C)[C@@H](C2CCCC2)C(=O)N(C)[C@H](C(=O)N2CCOCC2)CC(=O)N1C [PP0596] | – | 8.3 | – | B (a compound having 3 or more and less than 10 is denoted as B) | B (a compound having 3 or more and less than 10 is denoted as B) | – | –
CCC(CC)[C@H]1C(=O)N(C)[C@H](C(=O)N(C)C)CC(=O)N(C)[C@@H](COC)C(=O)N[C@@H]([C@@H](C)CC)C(=O)N(C)CC(=O)N(C)[C@H]2C/C=C\CCN(C2=O)[C@@H](Cc2ccc(C)cc2)C(=O)N(C)CC(=O)N[C@@H](CCc2ccc(Cl)c(Cl)c2)C(=O)N2C[C@H](OC3CCCC3)C[C@H]2C(=O)N(C)C2(CC(C)(C)C2)C(=O)N1C [PP2818] | A (a compound having 10 or more and less than 20 is denoted as A) | 77.1 | A (a compound having 10 or more and less than 20 is denoted as A) | – | – | – | –
CCO[C@@H]1C[C@H]2C(=O)NC3(CC(C)(C)C3)C(=O)N(C)[C@@H](C3CCCC3)C(=O)N(C)[C@H](C(=O)N(C)C)CC(=O)N3CCCCC[C@H]3C(=O)N[C@@H]([C@@H](C)CC)C(=O)N(C)CC(=O)N(C)[C@H]3C/C=C\CCN(C3=O)[C@@H](Cc3ccc(C(F)(F)F)cc3)C(=O)N(C)CC(=O)N[C@@H](CCc3cc(F)c(C(F)(F)F)c(F)c3)C(=O)N2C1 [PP1915] | – | 18.5 | – | A (a compound having 10 or more and less than 20 is denoted as A) | A (a compound having 10 or more and less than 20 is denoted as A) | – | –
CC[C@H](C)[C@@H]1NC(=O)[C@H](CC(C)C)N(C)C(=O)C[C@@H](C(=O)N2CCOCC2)N(C)C(=O)[C@H](C2CCCC2)N(C)C(=O)C2(CCCC2)NC(=O)[C@@H]2CC(=O)CN2C(=O)[C@H](CCc2cc(F)c(C(F)(F)F)c(F)c2)NC(=O)CN(C)C(=O)[C@H](Cc2ccc(C(F)(F)F)cc2)N2CCCC[C@@H](C2=O)N(C)C(=O)CN(C)C1=O [PP0555] | – | 48.5 | – | B (a compound having 3 or more and less than 10 is denoted as B) | B (a compound having 3 or more and less than 10 is denoted as B) | – | –
CC[C@H](C)[C@@H]1NC(=O)[C@H](CC(C)C)N(C)C(=O)C[C@@H](C(=O)N2CCOCC2)N(C)C(=O)[C@H](C2CCCC2)N(C)C(=O)C2(CCCC2)NC(=O)[C@@H]2CCCN2C(=O)[C@H](CCc2ccc(C(F)(F)F)c(Cl)c2)NC(=O)CN(CC)C(=O)[C@H](Cc2ccc(C)cc2)N(CC)C(=O)CN(C)C(=O)CN(C)C1=O [PP0028] ([NMeL]I[Sar][Sar][NEtPhe(4-Me)][NEtG][hPhe(3-Cl-4-CF3)]P[Ac5c][NMeGly(cPent)][NMeD]-Morpholide; lactam N-11) | C (A compound having a KD ratio of 0.1 or more and less than 3 is denoted as C) | 54.5 | C (A compound having a KD ratio of 0.1 or more and less than 3 is denoted as C) | – | – | – | –
